The results in this text go back to US7772252B2, “Heterocyclic substituted carbonyl derivatives and their use as dopamine D3 receptor ligands” (Aventis Pharmaceuticals Inc., priority 2001, dated 2010).

In this assay the target is T1, cloned human dopamine D3 receptors (Homo sapiens, UniProt P35462).
T1 construct: expressed in transfected cells; membrane homogenate
Briefly: [N-Methyl-3H]Spiroperidol binding to cloned human dopamine D3 receptors. In a few lines:
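Stably transfected CHO cells expressing cloned human D3 receptor were used as membranes homogenized in 10% DMSO. Ligand was [N-methyl-3H]spiroperidol displacement.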

Each structure is given as a SMILES string. Where two headings read alike, the source gives them in different places.

T1 sequence (P35462 whole entry): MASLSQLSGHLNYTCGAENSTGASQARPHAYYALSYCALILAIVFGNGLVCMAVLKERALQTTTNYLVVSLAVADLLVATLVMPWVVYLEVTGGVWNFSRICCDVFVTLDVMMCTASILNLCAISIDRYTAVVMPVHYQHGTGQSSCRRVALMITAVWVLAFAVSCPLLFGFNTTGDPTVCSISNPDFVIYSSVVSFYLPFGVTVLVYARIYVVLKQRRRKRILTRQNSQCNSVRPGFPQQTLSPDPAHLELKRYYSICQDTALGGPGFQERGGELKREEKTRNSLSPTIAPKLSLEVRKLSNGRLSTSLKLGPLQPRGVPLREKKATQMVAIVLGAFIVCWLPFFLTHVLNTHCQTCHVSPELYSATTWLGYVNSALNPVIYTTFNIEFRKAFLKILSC

In the case of `CC1CCC(N2CC(CN3CCN(c4csc5cc(C(F)(F)F)ccc45)CC3)CC2=O)CC1` (racemic) [833953A], under “read-out: D3 Ki”, the Ki was found to be 88.8 nM.

Take `O=C(NCCCn1ccnc1)[C@@H]1C[C@H]1CN1CCC(c2noc3ccc(C(F)(F)F)cc23)CC1` [A002200837]: the Ki (read-out: D3 Ki) turned out to be 0.368 nM. Take `O=C([C@@H]1C[C@H]1CN1CCC(c2noc3ccsc23)CC1)N1CCC2(CC1)OCCO2` [compound 829466]: for the setting “D3 Ki (nM)”, the Ki stood at 24.8 nM. For the compound `CC1(C)CCCN(C(=O)CCCN2CCN(c3csc4cc(C(F)(F)F)ccc34)CC2)C1` [compound 826817], under “read-out: d3Ki”, the Ki is 20 nM. Consider `Cc1cccc(CN2CCN(C(=O)C3CC3CN3CCC(c4noc5ccsc45)CC3)CC2)c1` (racemic) [compound 832158], for which the Ki (read-out: D3 Ki) is 0.37 nM. Regarding `O=C(NCCCN1CCCCC1)[C@@H]1C[C@H]1CN1CCN(c2csc3cc(C(F)(F)F)ccc23)CC1` [compound 831491], the Ki (read-out: D3 Ki) came to 0.187 nM.

Regarding `O=C(NCc1ccco1)C1CC1CN1CCC(c2noc3ccsc23)CC1` (racemic) [compound 827393], under “read-out: D3 Ki”, the Ki was determined as 391 nM. In the case of `O=C(NCCc1ccc(F)cc1)[C@@H]1C[C@H]1CN1CCC(c2noc3ccsc23)CC1` [compound 832725], the Ki (read-out: D3 Ki) came out at 4.22 nM. For the compound `O=C(NCCS(=O)(=O)c1ccccc1)C1CC1CN1CCC(c2noc3ccsc23)CC1` (racemic) [compound 831736], the Ki (read-out: D3 Ki) amounted to 291 nM. The same measure, in the same setting: the same measure for `O=C(NC1CCN(Cc2cccnc2)CC1)C1CC1CN1CCC(c2noc3ccsc23)CC1` (racemic) [compound 832394]: 8.32 nM; for `O=C(OCc1ccccc1)N1CCN(C(=O)C2CC2CN2CCC(c3noc4ccsc34)CC2)CC1` (racemic) [compound 831453]: 18.3 nM. Regarding `CN1CCN(C(=O)C2CC2CN2CCC(c3noc4ccsc34)CC2)CC1` (racemic) [compound 829590], for the setting “read-out: D3 Ki”, the Ki was found to be 109 nM. For `O=C(NCCCn1ccnc1-c1ccccc1)[C@@H]1C[C@H]1CN1CCC(c2noc3ccsc23)CC1` [compound 831378], the Ki (read-out: D3 Ki) came to 35.6 nM. For `COc1ccc2c(c1)c(N1CCN(C[C@@H]3C[C@H]3C(=O)NCCCn3cnc4ccccc43)CC1)nn2C` [A002243383], the Ki (read-out: D3 Ki) is 25.1 nM.

`COCCN1CCN(C(=O)[C@@H]2C[C@H]2CN2CCN(c3csc4cc(C(F)(F)F)ccc34)CC2)CC1` [compound 832835]: the Ki (read-out: D3 Ki) was determined as 18.1 nM. On the same count and under the same terms, the same measure for `CCC1CCC(NC(=O)C2CC2CN2CCN(CCc3ccccc3)CC2)CC1` (racemic) [compound 827237]: 153 nM; for `CN1CCN(CCCNC(=O)[C@@H]2C[C@H]2CN2CCC(c3nn(C)c4ccsc34)CC2)CC1` [A002438640]: 104 nM. For the compound `O=C([C@@H]1C[C@H]1CN1CCC(c2noc3ccsc23)CC1)N1CCN(C/C=C/c2ccccc2)CC1` [compound 829467], the Ki (read-out: D3 Ki) was 9.01 nM. In the case of `COc1c(F)ccc2c(C3CCN(CCC4(C(=O)NCCCn5ccnc5)CC4)CC3)noc12` [compound 833378], the Ki (read-out: D3 Ki) came to 23.7 nM. On to `O=C(NCCCn1cnc2ccccc21)[C@@H]1C[C@H]1CN1CCN(c2nn(-c3ccc(OC(F)(F)F)cc3)c3ccsc23)CC1` [A002243385], for which, for the setting “read-out: D3 Ki”, the Ki worked out at 661 nM. Turning to `O=C(NCCc1ccccc1)C1(CCN2CCN(c3csc4cc(C(F)(F)F)ccc34)CC2)CC1` [compound 832519], the Ki (read-out: D3 Ki) was determined as 97.5 nM. As to `O=C(NC1CCN(C(=O)c2cccc(Cl)c2)CC1)C1CC1CN1CCC(c2noc3ccsc23)CC1` (racemic) [compound 832488], the Ki (read-out: D3 Ki) was 39.5 nM. As for `O=C([C@@H]1C[C@H]1CN1CCC(c2noc3ccsc23)CC1)N1CCC(Cc2ccccc2)CC1` [compound 831194], the Ki (read-out: D3 Ki) turned out to be 5.06 nM.

For `O=C(C1CC1CN1CCC(c2noc3ccsc23)CC1)N1CCC(Oc2ccc(Cl)cc2)CC1` (racemic) [compound 831794], the Ki (read-out: D3 Ki) was 27.3 nM. Take `O=C(NC1CCN(Cc2ncc[nH]2)CC1)[C@@H]1C[C@H]1CN1CCC(c2noc3ccsc23)CC1` [compound 833382]: for the setting “read-out: D3 Ki”, the Ki was determined as 2.32 nM.

In the case of `O=C([C@@H]1C[C@H]1CN1CCC(c2noc3ccsc23)CC1)N1CCc2ccccc2C1` [compound 831199], the Ki (read-out: D3 Ki) was determined as 2.78 nM. As for `COc1cccc2c(C3CCN(C[C@@H]4C[C@H]4C(=O)NCCCc4cccnc4)CC3)noc12` [compound 832104], the Ki (read-out: D3 Ki) stood at 620 nM. As to `COc1ccc2c(c1)c(N1CCN(C[C@@H]3C[C@H]3C(=O)NC3CCN(CC4CCCCC4)CC3)CC1)nn2C` [compound 832743], under “read-out: D3 Ki”, the Ki was determined as 2.36 nM.

`O=C(N[C@H]1CC[C@H](O)CC1)[C@@H]1C[C@H]1CN1CCN(c2nn(-c3cccc(F)c3)c3ccsc23)CC1` [A002243404]: the Ki (read-out: D3 Ki) was determined as 492 nM. `O=C(NCCc1cccc(Cl)c1)C1CC1CN1CCC(c2noc3ccsc23)CC1` (racemic) [compound 831799]: the Ki (read-out: D3 Ki) turned out to be 12.1 nM. In the case of `CN(C)CCN1CCN(C(=O)[C@@H]2C[C@H]2CN2CCN(c3csc4cc(C(F)(F)F)ccc34)CC2)CC1` [compound 832580], the Ki (read-out: D3 Ki) was 28.8 nM. Turning to `O=C([C@@H]1C[C@H]1CN1CCC(c2noc3ccsc23)CC1)N1CCC(c2noc3ccsc23)CC1` [compound 831345], the Ki (read-out: D3 Ki) worked out at 34.4 nM. As to `O=C(NC1CCCCC1)[C@H](O)CCN1CCC(c2noc3ccsc23)CC1` [compound 830573], the Ki (read-out: D3 Ki) was 547 nM. Take `CCC(C)OC(=O)n1cc(C2CCN(C[C@@H]3C[C@H]3C(=O)N3CCC[C@@H](Cn4ccnc4)C3)CC2)c2ccc(C(F)(F)F)cc21` (some centres unmarked) [A002437355]: where the note is “read-out: D3 Ki”, the Ki turned out to be 1.87 nM. Turning to `C[C@H]1CC[C@H](NC(=O)[C@@H]2C[C@H]2CN2CCN(c3nn(-c4ccccc4)c4ccsc34)CC2)CC1` [compound 832849], the Ki (read-out: D3 Ki) came out at 1.12 nM. For the compound `O=C(NC1CC2CCC1C2)C1CC1CN1CCC(c2noc3ccsc23)CC1` (racemic) [compound 827395], the Ki (read-out: D3 Ki) worked out at 31.4 nM.

Turning to `CC1CCCCN1C(=O)[C@@H]1C[C@H]1CN1CCC(c2noc3ccsc23)CC1` (mixture of isomers) [compound 829462], the Ki (read-out: D3 Ki) is 9.65 nM. Same read-out and setting: the value for `O=C([C@@H]1C[C@H]1CN1CCN(c2csc3cc(C(F)(F)F)ccc23)CC1)N1CCC(N2CCCC2)CC1` [compound 832510] was 25 nM. Regarding `O=C([C@@H]1C[C@H]1CN1CCC(c2noc3ccsc23)CC1)N1CCN(CCc2cccs2)CC1` [compound 833163], the Ki (read-out: D3 Ki) came out at 17.5 nM. Turning to `COc1ccc2c(c1)c(N1CCN(C[C@@H]3C[C@H]3C(=O)N[C@H]3CC[C@H](C)CC3)CC1)nn2C` [compound 831768], for the setting “read-out: D3 Ki”, the Ki was 0.904 nM. On to `COc1ccc2c(c1)c(N1CCN(C[C@@H]3C[C@H]3C(=O)NC3CCN(Cc4ccc(Cl)cc4)CC3)CC1)nn2C` [compound 833834], for which the Ki (read-out: D3 Ki) came to 0.333 nM. Regarding `O=C(C1CC1CN1CCC(c2noc3ccsc23)CC1)N1CCN(C2CCCCC2)CC1` (racemic) [compound 829591], the Ki (read-out: D3 Ki) amounted to 72.4 nM. The same measure, in the same setting: the same measure for `O=C(NCCCn1ccnc1)[C@@H]1C[C@H]1CN1CCC(c2nsc3cc(Br)ccc23)CC1` [A002329097]: 101 nM.

`O=C(NCc1ccc(-c2csnn2)cc1)[C@@H]1C[C@H]1CN1CCN(c2csc3cc(C(F)(F)F)ccc23)CC1` [compound 833515]: the Ki (read-out: D3 Ki) came out at 48.3 nM.

`COc1ccc2c(c1)c(N1CCN(C[C@@H]3C[C@H]3C(=O)N(C)C3CCN(C)CC3)CC1)nn2C` [compound 832745]: the Ki (read-out: D3 Ki) worked out at 15 nM. As for `O=C([C@@H]1C[C@H]1CN1CCC(c2noc3c(C(F)(F)F)cccc23)CC1)N1CCCC(Cn2ccnc2)C1` (mixture of isomers) [compound 833911], where the note is “read-out: D3 Ki”, the Ki was 1.26 nM. With `O=C([C@@H]1C[C@H]1CN1CCC(c2noc3ccsc23)CC1)N1CCC(n2c(=O)[nH]c3ccccc32)CC1` [compound 832531], the Ki (read-out: D3 Ki) was determined as 67.7 nM. On the same count and under the same terms, the same measure for `COc1ccc(CCNC(=O)[C@@H]2C[C@H]2CN2CCC(c3noc4ccsc34)CC2)cc1` [compound 831344]: 22.1 nM; for `Cc1ccc(CN2CCC(NC(=O)C3CC3CN3CCC(c4noc5ccsc45)CC3)CC2)cc1` (racemic) [compound 831992]: 4.81 nM; for `O=C([C@@H]1C[C@H]1CN1CCN(c2csc3cc(F)ccc23)CC1)N1CCC(O)CC1` [compound 828716]: 2.38 nM.

For `O=C(N1CCCC1)C1(CCN2CCC(c3noc4ccsc34)CC2)CC1` [compound 832239], under “read-out: D3 Ki”, the Ki came to 207 nM. For `O=C(C1CC1CN1CCC(c2noc3ccsc23)CC1)N1CCN(CCc2ccncc2)CC1` (racemic) [compound 832000], the Ki (read-out: D3 Ki) came to 79.6 nM.

For `O=C(NC1CCN(C(=O)Nc2ccc(Cl)cc2)CC1)[C@@H]1C[C@H]1CN1CCC(c2noc3ccsc23)CC1` [compound 833714], under “read-out: D3 Ki”, the Ki amounted to 4.16 nM.

For the compound `C[C@H]1CC[C@H](NC(=O)[C@@H]2C[C@H]2CN2CCC(c3noc4ccc(C(F)(F)F)cc34)CC2)CC1` [compound 834012, 2R-[4-(5-Trifluoromethyl-benzo[d]isoxazol-3-yl)-piperidin-1-ylmethyl]-cyclopropane-1R-carboxylic acid trans-(4-methyl-cyclohexyl)-amide], the Ki (read-out: D3 Ki) was determined as 0.241 nM. For the compound `CC(C)(C)OC(=O)N1CCC(CNC(=O)[C@@H]2C[C@H]2CN2CCC(c3nn(-c4ccccc4)c4ccsc34)CC2)CC1` [A002439262], for the setting “read-out: D3 Ki”, the Ki is 28.3 nM. The same measure, in the same setting: the value for `O=C([C@@H]1C[C@H]1CN1CCC(c2noc3ccsc23)CC1)N1CCC(CCN2CCCC2)CC1` [compound 833509] was 41.5 nM; that for `O=C(NCCCN1CCCC1=O)[C@@H]1C[C@H]1CN1CCC(c2noc3ccsc23)CC1` [compound 830832] was 67.7 nM; that for `CC(C)NC(=O)CN1CCN(C(=O)[C@@H]2C[C@H]2CN2CCN(c3csc4cc(C(F)(F)F)ccc34)CC2)CC1` [compound 832582] was 25 nM.

On to `CC1CCC(NC(=O)C2CC2CN2CCCN(c3onc4c3CCc3ccccc3-4)CC2)CC1` (racemic) [compound 830123], for which, for the setting “read-out: D3 Ki”, the Ki was found to be 73.8 nM.

For `CC1CCC(NC(=O)C2CC2CN2C3CCC2CC(c2n[nH]c4ccccc24)C3)CC1` (centres unmarked) [compound 830115], the Ki (read-out: D3 Ki) was determined as 45.3 nM.

For `CCC1CCC(NC(=O)C2CC2CN2CCN(c3ccc(OC)cc3)CC2C)CC1` (racemic) [compound 827231], the Ki (read-out: D3 Ki) was determined as 60.6 nM. Consider `C[C@H]1CC[C@H](NC(=O)[C@@H]2C[C@H]2CN2CCN(c3nn(-c4ccc(C(F)(F)F)cc4)c4ccsc34)CC2)CC1` [compound 832881], for which the Ki (read-out: D3 Ki) was found to be 37.9 nM.
